Data as given in patent publication US8557816B2, “Aurora kinase modulators and method of use” (Amgen Inc., priority 2007, dated 2013).

Assays:
AuroraB = molecular target: T1, AuroraB (Homo sapiens, UniProt Q96GD4); assay: AuroraB Homogeneous Time Resolved Fluorescent (HTRF) kinase assay; format: biochemical; settings: average; read-out: AurB_IC50_IP (uM Avg)
T1 construct: 20 μL of AuroraB FL H is for a final volume of 41 μL; His
How it was run: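 Read-out is time-resolved FRET between europium anti-phospho-H3 antibody and streptavidin-APC, added in EDTA buffer to stop the reaction and equilibrated about 60 min (ex 320, em 615 and 655 nm). Preceding reaction: ~90 min, full-length enzyme, ATP, 0.1 μM biotin-Histone H3 substrate, Mg/Mn HEPES buffer pH 7.5.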

AuroraA-TPX2 = molecular target: T2, AuroraA-TPX2 (Homo sapiens, UniProt O14965); assay: AuroraA-TPX2 Homogeneous Time Resolved Fluorescent (HTRF) kinase assay; format: biochemical; settings: average; read-out: AurA_IC50_IP (uM Avg)
T2 construct: 20 μL of AuroraA-TPX2 KD GST for a final volume of about 41 μL; GST
T2 sequence (O14965 133-383 limits assumed): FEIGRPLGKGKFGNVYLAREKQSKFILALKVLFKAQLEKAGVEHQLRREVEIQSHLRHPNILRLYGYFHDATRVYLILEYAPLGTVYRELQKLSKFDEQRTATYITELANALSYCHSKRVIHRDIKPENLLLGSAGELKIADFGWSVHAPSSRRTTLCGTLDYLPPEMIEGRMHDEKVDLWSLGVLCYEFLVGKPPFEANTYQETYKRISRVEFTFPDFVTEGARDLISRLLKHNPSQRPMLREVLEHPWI
T2 sequence (Q9ULW0 1-43 partner limits assumed): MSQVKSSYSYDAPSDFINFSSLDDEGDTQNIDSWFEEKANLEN
How it was run: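 HTRF read-out (Eu 615 nm to APC 655 nm) of phosphorylated biotin-PLK, detected with 0.02 nM europium anti-phosphoPLK antibody and 0.0005 mg/mL SA-APC after overnight equilibration.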

T1 sequence (Q96GD4 whole entry): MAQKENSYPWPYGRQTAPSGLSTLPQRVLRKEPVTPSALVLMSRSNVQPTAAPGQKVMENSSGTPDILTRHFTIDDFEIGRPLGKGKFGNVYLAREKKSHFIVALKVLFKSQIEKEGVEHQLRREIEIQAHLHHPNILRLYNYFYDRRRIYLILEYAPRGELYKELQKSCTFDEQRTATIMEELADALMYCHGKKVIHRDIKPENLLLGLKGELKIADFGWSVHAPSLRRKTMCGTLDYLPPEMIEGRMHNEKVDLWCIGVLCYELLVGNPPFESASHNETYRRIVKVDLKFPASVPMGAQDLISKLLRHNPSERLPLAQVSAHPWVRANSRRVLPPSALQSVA

Structure (SMILES) | IC50 (AuroraB) [µM] | IC50 (AuroraA-TPX2) [µM]
COc1cnc2c(Oc3ccc(Cc4nnc(-c5ccc(C)cc5)c5ccccc45)cc3)ccnc2c1 [compound 126, 3-(methyloxy)-8-((4-((4-(4-methylphenyl)-1-phthalazinyl)methyl)phenyl)oxy)-1,5-naphthyridine] | 0.017 | 0.388
COc1cnc2c(Oc3ccc(Nc4nnc(-c5cccc(C)n5)c5ccccc45)cn3)ccnc2c1 [compound 128, N-(6-((7-(methyloxy)-1,5-naphthyridin-4-yl)oxy)-3-pyridinyl)-4-(6-methyl-2-pyridinyl)-1-phthalazinamine] | 0.018 | 0.099
COc1cncc(-c2nnc(Nc3ccc(Oc4ccnc5cc(OC)cnc45)cc3)c3ccccc23)c1 [compound 129, N-(4-((7-(methyloxy)-1,5-naphthyridin-4-yl)oxy)phenyl)-4-(5-(methyloxy)-3-pyridinyl)-1-phthalazinamine] | 0.014 | 0.165
COc1cnc2c(Oc3ccc(Nc4nnc(-c5ccncc5OC)c5ccccc45)cc3)ccnc2c1 [compound 130, N-(4-((7-(methyloxy)-1,5-naphthyridin-4-yl)oxy)phenyl)-4-(3-(methyloxy)-4-pyridinyl)-1-phthalazinamine] | 0.1 | 0.654
Brc1ccc2c(Oc3ccc(Nc4nnc(-c5ccccc5)c5ccccc45)cc3)ccnc2c1 [compound 133, N-(4-((7-bromo-4-quinolinyl)oxy)phenyl)-4-phenyl-1-phthalazinamine] | 0.028 | 0.494
Brc1ccc2nccc(Oc3ccc(Nc4nnc(-c5ccccc5)c5ccccc45)cc3)c2c1 [compound 134, N-(4-((6-bromo-4-quinolinyl)oxy)phenyl)-4-phenyl-1-phthalazinamine] | 0.024 | 0.176
COc1cnc2c(Oc3ccc(Nc4nnc(-c5ccc6c(c5)CC(C)(C)O6)c5ccccc45)cc3)ccnc2c1 [compound 136, 4-(2,2-dimethyl-2,3-dihydro-1-benzofuran-5-yl)-N-(4-((7-(methyloxy)-1,5-naphthyridin-4-yl)oxy)phenyl)-1-phthalazinamine] | 0.016 | 0.037
COc1cnc2c(Oc3ccc(Nc4nnc(-c5ccc(OC(C)C)cc5)c5ccccc45)cc3)ccnc2c1 [compound 137, 4-(4-((1-methylethyl)oxy)phenyl)-N-(4-((7-(methyloxy)-1,5-naphthyridin-4-yl)oxy)phenyl)-1-phthalazinamine] | 0.018 | 0.091
COc1cnc2c(Oc3ccc(Nc4nnc(-c5ccc(C)s5)c5ccccc45)cc3)ccnc2c1 [compound 138, N-(4-((7-(methyloxy)-1,5-naphthyridin-4-yl)oxy)phenyl)-4-(5-methyl-2-thienyl)-1-phthalazinamine] | 0.013 | 0.018
COc1cnc2c(Oc3ccc(Nc4ncc(-c5ccccc5)c5ccccc45)cc3)ccnc2c1 [compound 144, N-(4-((7-(methyloxy)-1,5-naphthyridin-4-yl)oxy)phenyl)-4-phenyl-1-isoquinolinamine] | 0.02 | 0.061
COc1cc2nccc(Oc3ccc(Nc4ncc(-c5ccccc5)c5ccccc45)cc3)c2cn1 [compound 145, N-(4-((7-(methyloxy)-1,6-naphthyridin-4-yl)oxy)phenyl)-4-phenyl-1-isoquinolinamine] | 0.096 | 0.326
CCc1cc(-c2ccccc2)nnc1Nc1ccc(Oc2ncnc3cc(OC)c(OC)cc23)cc1 [compound 148, N-(4-((6,7-bis(methyloxy)-4-quinazolinyl)oxy)phenyl)-4-ethyl-6-phenyl-3-pyridazinamine] | 0.016 | 0.062
CCc1cc(-c2ccccc2)nnc1Nc1ccc(Oc2ccnc3cc(C#N)ccc23)cc1 [compound 149, 4-((4-((4-ethyl-6-phenyl-3-pyridazinyl)amino)phenyl)oxy)-7-quinolinecarbonitrile] | 0.014 | 0.146
COc1cc2ncnc(Oc3ccc(Nc4nnc(-c5cc(C)cs5)c5ccccc45)cc3)c2cc1OC [compound 153, N-(4-((6,7-bis(methyloxy)-4-quinazolinyl)oxy)phenyl)-4-(4-methyl-2-thienyl)-1-phthalazinamine] | 0.012 | 0.009

Further molecules by falling IC50 (AuroraB), results first:

IC50 (AuroraB) [µM] | IC50 (AuroraA-TPX2) [µM] | Structure (SMILES)
0.012 | 0.063 | COc1cnc2c(Oc3ccc(Nc4nnc(-c5ccccc5)c5ccccc45)nc3)ccnc2c1 [compound 135, N-(5-((7-(methyloxy)-1,5-naphthyridin-4-yl)oxy)-2-pyridinyl)-4-phenyl-1-phthalazinamine]
0.011 | 0.025 | N#Cc1ccc2c(Oc3ccc(Nc4nnc(-c5ccc(C(F)(F)F)cc5)c5ccccc45)cc3)ccnc2c1 [compound 147, 4-((4-((4-(4-(trifluoromethyl)phenyl)-1-phthalazinyl)amino)phenyl)oxy)-7-quinolinecarbonitrile]
0.009 | 0.241 | COc1cc2nccc(Oc3ccc(Nc4nnc(-c5cccc(C)n5)c5ccccc45)cn3)c2cn1 [compound 127, N-(6-((7-(methyloxy)-1,6-naphthyridin-4-yl)oxy)-3-pyridinyl)-4-(6-methyl-2-pyridinyl)-1-phthalazinamine]
0.009 | 0.012 | COc1cnc2c(Oc3ccc(Nc4nnc(-c5cc6ccccc6n5C)c5ccccc45)cc3)ccnc2c1 [compound 143, 4-(1-methyl-1H-indol-2-yl)-N-(4-((7-(methyloxy)-1,5-naphthyridin-4-yl)oxy)phenyl)-1-phthalazinamine]
0.008 | 0.022 | COc1cnc2c(Oc3ccc(Nc4nnc(-c5ccc(Cl)s5)c5ccccc45)cc3)ccnc2c1 [compound 140, 4-(5-chloro-2-thienyl)-N-(4-((7-(methyloxy)-1,5-naphthyridin-4-yl)oxy)phenyl)-1-phthalazinamine]
0.008 | 0.026 | COc1cnc2c(Oc3ccc(Nc4nnc(-c5ccc(C(F)(F)F)cc5)c5ccccc45)cc3)ccnc2c1 [compound 146, N-(4-((7-(methyloxy)-1,5-naphthyridin-4-yl)oxy)phenyl)-4-(4-(trifluoromethyl)phenyl)-1-phthalazinamine]
0.007 | 0.008 | COc1cnc2c(Oc3ccc(Nc4nnc(-c5ccc6sccc6c5)c5ccccc45)cc3)ccnc2c1 [compound 142, 4-(1-benzothien-5-yl)-N-(4-((7-(methyloxy)-1,5-naphthyridin-4-yl)oxy)phenyl)-1-phthalazinamine]
0.007 | 0.014 | COc1cc2nccc(Oc3ccc(Nc4nnc(-c5cccc(C)n5)c5ccccc45)cc3)c2cc1OC [compound 150, N-(4-((6,7-bis(methyloxy)-4-quinolinyl)oxy)phenyl)-4-(6-methyl-2-pyridinyl)-1-phthalazinamine]
0.006 | 0.018 | COc1cccc(-c2nnc(Nc3ccc(Oc4ccnc5cc(OC)cnc45)cc3)c3ccccc23)c1 [compound 139, N-(4-((7-(methyloxy)-1,5-naphthyridin-4-yl)oxy)phenyl)-4-(3-(methyloxy)phenyl)-1-phthalazinamine]
0.006 | 0.006 | COc1cnc2c(Oc3ccc(Nc4nnc(-c5cc(C)cs5)c5ccccc45)cc3)ccnc2c1 [compound 152, N-(4-((7-(methyloxy)-1,5-naphthyridin-4-yl)oxy)phenyl)-4-(4-methyl-2-thienyl)-1-phthalazinamine]
0.005 | 0.022 | COc1cnc2c(Oc3ccc(Nc4nnc(-c5cccc(COC(C)=O)n5)c5ccccc45)cc3)ccnc2c1 [compound 132, (6-(4-((4-((7-(methyloxy)-1,5-naphthyridin-4-yl)oxy)phenyl)amino)-1-phthalazinyl)-2-pyridinyl)methyl acetate]
0.005 | 0.022 | COc1cnc2c(Oc3ccc(Nc4nnc(N5CCCCC5)c5ccccc45)cc3)ccnc2c1 [compound 151, N-(4-((7-(methyloxy)-1,5-naphthyridin-4-yl)oxy)phenyl)-4-(1-piperidinyl)-1-phthalazinamine]
0.004 | 0.019 | COc1ccc(-c2nnc(Nc3ccc(Oc4ccnc5cc(C#N)ccc45)cc3)c3ccccc23)cc1 [compound 141, 4-((4-((4-(4-(methyloxy)phenyl)-1-phthalazinyl)amino)phenyl)oxy)-7-quinolinecarbonitrile]
0.004 | 0.018 | COc1cnc2c(Oc3ccc(Nc4nnc(-c5ccc(Cl)c(C#N)c5)c5ccccc45)cc3)ccnc2c1 [compound 154, 2-chloro-5-(4-((4-((7-(methyloxy)-1,5-naphthyridin-4-yl)oxy)phenyl)amino)-1-phthalazinyl)benzonitrile]
0.003 | 0.018 | COc1cnc2c(Oc3ccc(Nc4nnc(-c5ccc(C)cn5)c5ccccc45)cc3)ccnc2c1 [compound 125, N-(4-((7-(methyloxy)-1,5-naphthyridin-4-yl)oxy)phenyl)-4-(5-methyl-2-pyridinyl)-1-phthalazinamine]
0.003 | 0.019 | COc1cc2nccc(Oc3ccc(Nc4nnc(-c5cccc(OC)n5)c5ccccc45)cc3)c2cn1 [compound 131, N-(4-((7-(methyloxy)-1,6-naphthyridin-4-yl)oxy)phenyl)-4-(6-(methyloxy)-2-pyridinyl)-1-phthalazinamine]
